These results are taken from patent US20230416261A1, “ETHANEDIAMINE-HETEROCYCLE DERIVATIVES AS INHIBITORS OF PROTEIN ARGININE METHYLTRANSFERASES” (Board of Regents, The University of Texas System, priority 2021, published 2023).

pIC50: −log10 of the molar value.

By pIC50 is commonly meant −log10 of the IC50, conventionally taken in molar units.

In one assay the test system is DOHH2 cells. Kind of assay: DOHH2 Long Term Phenotypic Assay (7 days, Cell Titer-Glo viability). Type of assay: cell-based. Conditions: Homo sapiens, DOHH-2, 168 h, Cell Titer-Glo 2.0. A digest of the protocol:
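DOHH2 lymphoma cells (250 per well) in RPMI-1640 with 10% FBS were exposed to 1:3 serially diluted compounds for 7 days at 37 °C, 5% CO2. Viability was read by CellTiter-Glo 2.0 luminescence, and IC50 values came from four-parameter logistic fits.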

For assay [1], the target named is T1, PRMT1 (Homo sapiens, UniProt Q99873). Description: PRMT1 Enzymatic Assay (LANCE TR-FRET, methylation of histone H4 at Arg3). Type of assay: biochemical. Further details: purchased SignalChem P365-380G. Conditions: PRMT1 1.5 nM, SAM 1 μM, biotinylated histone H4 (1-21) 25 nM; read-out: PRMT-1 IC50. A digest of the protocol: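 PRMT1 (1.5 nM) preincubated 15 min with compound at room temperature, then reacted 1 h with 1 μM SAM and 25 nM biotinylated histone H4 (1-21) in 50 mM Hepes pH 8, 1 mM TCEP, 0.003% Tween-20. H4R3me detected by TR-FRET (665/620 nm ratio); IC50 from four-parameter logistic fit.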
(In general: Time-resolved FRET reads energy transfer from a long-lived donor to a nearby acceptor.)

In another assay the test system is PATC53 cells. Description: PATC53 Long Term Phenotypic Assay (14 days, crystal violet viability). The settings on record: 336 h. Type of assay: cell-based. In outline:
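Cells seeded at 250 per well, allowed 24 h to settle, then treated with 1:3 serial dilutions of compound for 14 days at 37 °C, 5% CO2. Viability measured by crystal violet staining, solubilised in 10% HOAc, absorbance 590 nm; IC50 from four-parameter logistic fit.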

Assay [2] addresses T1, PRMT1. Kind of assay: PRMT1 RKO Cellular Target Engagement Assay (In-Cell Western, asymmetric di-methyl arginine). Type of assay: cell-based. Conditions: RKO cells, 48 hr compound incubation; read-out: RKO IC50 (PRMT-1 Target Engagement). A digest of the protocol:
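RKO cells (1,000/well) received 1:3 serially diluted compound for 48 h at 37 °C, then were fixed, permeabilised and immunostained for asymmetric di-methyl arginine by In-Cell Western. The 800 nm antibody signal was normalised to CellTag 700 nm; IC50 from four-parameter logistic fit.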

T1 sequence (Q99873 whole entry): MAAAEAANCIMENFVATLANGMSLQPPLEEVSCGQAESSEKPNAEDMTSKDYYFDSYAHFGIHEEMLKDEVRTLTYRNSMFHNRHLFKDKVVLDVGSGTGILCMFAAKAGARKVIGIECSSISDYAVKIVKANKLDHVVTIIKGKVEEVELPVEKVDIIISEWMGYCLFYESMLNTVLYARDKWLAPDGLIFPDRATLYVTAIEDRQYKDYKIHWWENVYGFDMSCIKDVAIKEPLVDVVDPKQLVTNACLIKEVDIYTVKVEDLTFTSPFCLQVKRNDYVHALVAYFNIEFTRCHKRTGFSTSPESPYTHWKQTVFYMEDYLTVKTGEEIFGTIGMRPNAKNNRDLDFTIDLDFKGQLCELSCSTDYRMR

In the case of `CNCCN(C)Cc1nn2c(c1C1CCC(COC)(COC)CC1)CN(C(=O)CC1CCC1)CC2` [Example 60, 1-(3-(4,4-bis(methoxy-methyl)cyclohexyl)-2-((methyl(2-(methylamino)-ethyl)amino)methyl)-6,7-dihydropyrazolo[1,5-a]-pyrazin-5(4H)-yl)-2-cyclobutylethan-1-one], the pIC50 with DOHH2 cells was 7.09; at PRMT1 [1] it was 7.27; in the assay with PATC53 cells it was 7.48; on PRMT1 [2], 6.46.

For `COCC1(COC)CCC(c2c(CN(C)CCN)nn3c2CN(C(=O)C2CC(C)(C)C2)CC3)CC1` [Example 61, (2-(((2-aminoethyl)(methyl)-amino)methyl)-3-(4,4-bis-(methoxymethyl)cyclohexyl)-6,7-dihydropyrazolo[1,5-a]-pyrazin-5(4H)-yl)(3,3-dimethylcyclobutyl)-methanone], the pIC50 with DOHH2 cells is 6.65; on PRMT1 [1], 7.64; with PATC53 cells, 7.17; on PRMT1 [2], 5.71.

Regarding `CNCCN(C)Cc1nn2c(c1C1CCC(COC)(COC)CC1)CN(C(=O)C13CC(C)(C1)C3)CC2` [Example 63, (3-(4,4-bis(methoxymethyl)-cyclohexyl)-2-((methyl(2-(methylamino)ethyl)amino)-methyl)-6,7-dihydropyrazolo-[1,5-a]pyrazin-5(4H)-yl)(3-methylbicyclo[1.1.1]pentan-1-yl)methanone], the pIC50 in the assay on DOHH2 cells is 7.17; at PRMT1 [1] it was 7.36; in the assay on PATC53 cells it was 7.80; at PRMT1 [2], 6.21.

Take `CNCCN(C)Cc1nn2c(c1C1CCC(COC)(COC)CC1)CN(C(=O)C(C)C(F)(F)F)CC2` (stereo not drawn) [Example 68, 1-(3-(4,4-bis(methoxy-methyl)cyclohexyl)-2-((methyl(2-(methylamino)-ethyl)amino)methyl)-6,7-dihydropyrazolo[1,5-a]-pyrazin-5(4H)-yl)-3,3,3-trifluoro-2-methylpropan-1-one]: the pIC50 in the assay on DOHH2 cells was 7.15; on PRMT1 [1] it was 6.92; in the assay on PATC53 cells, 7.39; at PRMT1 [2] it was 6.89.

On to `CNCCN(C)Cc1nn2c(c1C1CCC(COC)(COC)CC1)CN(C(=O)C1CC(C(F)(F)F)C1)CC2` (stereo not drawn) [Example 74, (3-(4,4-bis(methoxymethyl)-cyclohexyl)-2-((methyl(2-(methylamino)ethyl)amino)-methyl)-6,7-dihydropyrazolo-[1,5-a]pyrazin-5(4H)-yl)(3-(trifluoromethyl)cyclobutyl)-methanone], for which the pIC50 in the assay on DOHH2 cells was 7.03; at PRMT1 [1], 7.24; in the assay on PATC53 cells, 7.27; on PRMT1 [2], 6.85.

Take `CNCCN(C)Cc1nn2c(c1C1CCC(COC)(COC)CC1)CN(C(=O)C1(C)CCCC1)CC2` [Example 80, (3-(4,4-bis(methoxymethyl)-cyclohexyl)-2-((methyl(2-(methylamino)ethyl)amino)-methyl)-6,7-dihydropyrazolo-[1,5-a]pyrazin-5(4H)-yl)(1-methylcyclopentyl)-methanone]: the pIC50 in the assay with DOHH2 cells is 6.98; at PRMT1 [1], 7.04; in the assay on PATC53 cells, 7.15; on PRMT1 [2], 6.94.
